Literature values as cited in US7695734B2, “Extended release tablet formulation containing pramipexole or a pharmaceutically acceptable salt thereof” (Boehringer Ingelheim International GmbH, priority 2004, dated 2010).

How the values were obtained:
dopamine D2 receptor = dopamine D2 receptor (Homo sapiens, UniProt P14416)
[1] = light

Sequence of dopamine D2 receptor (P14416 whole entry, species assumed): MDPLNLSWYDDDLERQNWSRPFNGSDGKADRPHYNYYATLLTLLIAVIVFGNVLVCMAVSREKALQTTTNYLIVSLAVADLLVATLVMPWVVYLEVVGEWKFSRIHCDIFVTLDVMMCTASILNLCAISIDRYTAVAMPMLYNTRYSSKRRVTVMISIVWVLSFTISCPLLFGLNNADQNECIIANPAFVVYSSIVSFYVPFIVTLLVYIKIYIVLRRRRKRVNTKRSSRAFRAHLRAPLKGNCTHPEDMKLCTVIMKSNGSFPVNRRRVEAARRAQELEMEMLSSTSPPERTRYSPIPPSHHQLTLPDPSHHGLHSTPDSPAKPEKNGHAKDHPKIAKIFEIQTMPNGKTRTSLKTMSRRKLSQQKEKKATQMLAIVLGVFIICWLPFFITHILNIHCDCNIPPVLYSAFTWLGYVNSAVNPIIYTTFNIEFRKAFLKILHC

Question: With `CCCN[C@H]1CCc2nc(N)sc2C1` [Pramipexole, (S)-2-amino-4,5,6,7-tetrahydro-6-(propylamino)benzothiazole] as the compound, how does the agonist activity (dopamine D2 receptor; dopamine D2 receptor) read?
Answer: full agonist

Question: And the receptor selectivity (dopamine D2 receptor; dopamine receptors)?
Answer: receptor selectivity for the dopamine D2 family of dopamine receptors

Question: And the stability in solution [1]?
Answer: light sensitive
